Results published in the supplement of paper PMC10307832.

What was measured:
Experiment in all cases: relative viability (nuclei count vs DMSO), 5 days (fraction); higher = more cells survive
Neratinib = compound: CCOc1cc2ncc(C#N)c(Nc3ccc(OCc4ccccn4)c(Cl)c3)c2cc1NC(=O)/C=C/CN(C)C [Neratinib]
Summary of the method: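 Five library-drug doses, separated by factors of √10, were pinned into 1536-well plates holding lung cancer cell lines after an overnight stay at 37 °C. Cells were fixed, permeabilised and Hoechst-stained in one step after 5 days without medium change, then imaged at 4×. Viability compares treated-well with vehicle-well nuclei, counted in MetaXpress, as a median across plates. Passing plates had control CV below 25% and at least one doubling.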

Neratinib + Trametinib = compound: CCOc1cc2ncc(C#N)c(Nc3ccc(OCc4ccccn4)c(Cl)c3)c2cc1NC(=O)/C=C/CN(C)C [Neratinib] + CC(=O)Nc1cccc(-n2c(=O)n(C3CC3)c(=O)c3c(Nc4ccc(I)cc4F)n(C)c(=O)c(C)c32)c1 [Trametinib] (partner 0.02 µM)
Summary of the method: (§1)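 Medians of duplicate plates are given as relative viability. That measure is the nuclei count in treated wells divided by the count in vehicle wells. Counts were taken on 4× images of lung cancer cell lines in 1536-well plates, 5 days after pin-tool dosing the day after seeding with one drug alone or a fixed anchor-drug dose plus five library-drug doses (not always all listed) in √10 steps.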

Neratinib + Tozasertib = compound: CCOc1cc2ncc(C#N)c(Nc3ccc(OCc4ccccn4)c(Cl)c3)c2cc1NC(=O)/C=C/CN(C)C [Neratinib] + Cc1cc(Nc2cc(N3CCN(C)CC3)nc(Sc3ccc(NC(=O)C4CC4)cc3)n2)n[nH]1 [Tozasertib] (partner 0.1 µM)
Summary of the method: as §1

Neratinib + AZD7762 = compound: CCOc1cc2ncc(C#N)c(Nc3ccc(OCc4ccccn4)c(Cl)c3)c2cc1NC(=O)/C=C/CN(C)C [Neratinib] + NC(=O)Nc1cc(-c2cccc(F)c2)sc1C(=O)N[C@H]1CCCNC1 [AZD7762] (partner 0.2 µM)
Summary of the method: as §1

Row | Cell Line | relative viability (Neratinib; 0.01 µM) | relative viability (Neratinib; 0.03162 µM) | relative viability (Neratinib; 0.1 µM) | relative viability (Neratinib; 0.3162 µM) | relative viability (Neratinib; 1 µM) | relative viability (Neratinib + Trametinib; first compound 0.01 µM) | relative viability (Neratinib + Trametinib; first compound 0.03162 µM) | relative viability (Neratinib + Trametinib; first compound 0.1 µM) | relative viability (Neratinib + Trametinib; first compound 0.3162 µM) | relative viability (Neratinib + Trametinib; first compound 1 µM) | relative viability (Neratinib + Tozasertib; first compound 0.01 µM) | relative viability (Neratinib + Tozasertib; first compound 0.03162 µM) | relative viability (Neratinib + Tozasertib; first compound 0.1 µM) | relative viability (Neratinib + Tozasertib; first compound 0.3162 µM) | relative viability (Neratinib + Tozasertib; first compound 1 µM) | relative viability (Neratinib + AZD7762; first compound 0.01 µM) | relative viability (Neratinib + AZD7762; first compound 0.03162 µM) | relative viability (Neratinib + AZD7762; first compound 0.1 µM) | relative viability (Neratinib + AZD7762; first compound 0.3162 µM) | relative viability (Neratinib + AZD7762; first compound 1 µM)
1 | NCI-H2126 | 1.03 | 0.998 | 0.904 | 0.907 | 0.553 | 0.646 | 0.552 | 0.543 | 0.497 | 0.36 | 0.851 | 0.857 | 0.794 | 0.673 | 0.397 | 1.07 | 0.999 | 0.873 | 1 | 0.741
2 | NCI-H23 | 1.1 | 1.15 | 0.811 | 0.922 | 0.739 | 0.397 | 0.401 | 0.35 | 0.342 | 0.251 | 0.371 | 0.342 | 0.33 | 0.298 | 0.215 | 0.253 | 0.329 | 0.25 | 0.217 | 0.191
3 | PC-3 [JPC-3] | 1.07 | 1.12 | 0.947 | 0.687 | 0.471 | 0.745 | 0.831 | 0.629 | 0.427 | 0.435 | 0.891 | 0.922 | 0.822 | 0.773 | 0.406 | 0.798 | 0.863 | 0.856 | 0.487 | 0.51
4 | NCI-H838 | 1 | 1.02 | 0.88 | 0.946 | 0.532 | 0.53 | 0.554 | 0.502 | 0.499 | 0.281 | 0.274 | 0.291 | 0.241 | 0.267 | 0.22 | 0.944 | 1.08 | 0.968 |  | 0.78
5 | NCI-H650 | 1.02 | 1.04 | 1.12 | 0.662 | 0.877 | 0.968 | 1.03 | 1.16 |  | 0.937 | 0.749 | 0.829 | 0.654 | 0.668 | 0.583 | 1.02 | 1.09 |  | 1 | 1.3
6 | EBC-1 | 1.02 | 1.12 | 0.872 | 0.993 | 0.813 |  |  |  |  |  |  |  |  |  |  |  |  |  |  | 
7 | PC-14 | 1.1 | 1.13 | 0.964 | 0.732 | 0.211 | 0.717 | 0.832 | 0.573 | 0.096 | 0.0456 | 0.574 | 0.721 | 0.627 | 0.454 | 0.0727 | 0.366 | 0.41 | 0.36 | 0.242 | 0.134
8 | NCI-H1299 | 1.01 |  | 0.89 | 1.03 | 1.06 |  |  |  |  |  |  |  |  |  |  |  |  |  |  | 
9 | NCI-H2009 | 1.01 | 1.05 | 0.989 | 0.927 | 0.96 | 0.301 | 0.262 | 0.307 | 0.266 | 0.179 | 0.732 | 0.799 | 0.621 | 0.613 | 0.554 |  |  |  |  | 
10 | COR-L23 | 1.21 | 1.17 | 0.87 | 1.02 | 0.86 | 0.572 | 0.603 | 0.598 | 0.482 | 0.379 | 0.216 | 0.217 | 0.193 | 0.186 | 0.176 |  |  |  |  | 
11 | NCI-H1650 | 0.985 | 0.906 | 0.833 | 0.68 | 0.694 | 0.62 | 0.744 | 0.494 | 0.405 | 0.315 | 0.362 | 0.359 | 0.292 | 0.31 | 0.204 |  |  |  |  | 
12 | UMC-11 | 0.901 | 1.14 | 0.748 | 0.898 | 0.832 | 0.621 | 0.879 | 0.673 | 0.666 | 0.686 | 0.198 | 0.2 | 0.216 | 0.179 | 0.185 |  |  |  |  | 
13 | NCI-H661 | 1.1 | 0.999 | 0.808 | 0.57 | 0.448 | 0.63 | 0.568 | 0.447 | 0.352 | 0.276 | 0.374 | 0.322 | 0.323 | 0.37 | 0.308 |  |  |  |  | 
14 | IA-LM | 1.03 | 1.04 | 0.943 | 0.881 | 0.562 |  |  |  |  |  |  |  |  |  |  |  |  |  |  | 
15 | NCI-H2023 | 0.997 | 0.824 |  | 0.881 | 0.707 | 0.594 | 0.491 | 0.371 | 0.43 | 0.399 | 0.389 | 0.33 | 0.292 | 0.211 | 0.141 |  |  |  |  | 
16 | NCI-H2228 |  | 1.21 | 0.973 | 0.858 | 0.223 | 0.457 | 0.93 | 0.359 | 0.58 | 0.132 | 0.264 | 0.281 | 0.178 | 0.267 | 0.126 |  |  |  |  | 
17 | NCI-H1563 | 1.03 | 1.07 | 0.915 | 0.864 | 0.706 |  |  |  |  |  |  |  |  |  |  |  |  |  |  | 
18 | SK-LU-1 | 1.1 | 1.2 |  | 0.979 | 0.46 | 0.517 | 0.58 | 0.457 | 0.442 | 0.344 | 0.292 | 0.305 | 0.277 | 0.294 | 0.227 |  |  |  |  | 
19 | SK-MES-1 | 1.06 | 1.09 | 0.91 | 0.463 | 0.298 | 0.648 | 0.564 | 0.564 | 0.332 |  | 0.947 | 0.996 | 0.955 | 0.631 | 0.21 |  |  |  |  | 
20 | ABC-1 | 1.06 | 1.06 | 0.898 | 0.777 | 0.364 |  |  |  |  |  | 0.206 | 0.139 | 0.177 | 0.146 | 0.185 | 0.955 | 0.659 | 0.682 | 0.779 | 
21 | NCI-H1792 | 1.33 | 1.19 | 0.808 |  | 0.813 | 0.476 | 0.663 | 0.423 | 0.39 | 0.26 |  |  |  |  |  |  | 0.943 | 0.625 | 0.533 | 0.283
22 | COR-L 105 | 0.904 |  | 0.687 | 0.329 | 0.297 | 0.49 | 0.441 | 0.372 | 0.32 | 0.4 | 0.41 | 0.418 | 0.375 | 0.251 | 0.186 |  |  |  |  | 
